According to publication PMC8321240, “Cell-Type-Specific High Throughput Toxicity Testing in Human Midbrain Organoids” (Frontiers in Molecular Neuroscience, 2021):
“Also recorded” adds a separate entry of the source.

Tests used:
[1] = tested on: automated midbrain organoids (AMOs); assay: Viability of 3D AMOs (CellTiter-Glo 3D) in the 2D vs 3D comparison; type: cell-based, human; details: for IC50: Homo sapiens, 48 h exposure from day 50
Protocol: We cultured AMOs for 47 days in our automated system as described above. On day 47, we exchanged the organoid medium to a minimal tox medium (TM, consisting of DMEM/F-12 with 1% N2 supplement and 1% penicillin/streptomycin/glutamine) to reduce possible interference from antioxidants in the B27 media supplement. The next day, we treated the AMOs with the compounds from the library at a concentration of 100 μM in TM with some deviations due to solubility (see Supplementary Table 1 for a complete list of compounds including their final concentrations in the screen). DMSO control samples contained 0.5% (v/v) DMSO, which is equivalent to the amount of solvent in the samples that received compound treatment. After 48 h of incubation with the compounds, we either directly processed the organoids for the 48-h time point or renewed the compounds in TM once to achieve 96 h of incubation. Following either 48 or 96 h of compound incubation, we used the CellTiter-Glo 3D cell viability assay (Promega) to measure the viability of individual organoids, as previously described (Renner et al., [2020]). Briefly, the 96-well plates of AMOs and the reagents were brought to room temperature for 30 min. We adjusted the media volume of each well to 55 μl and added an equal volume (55 μl) of the CellTiter-Glo 3D reagent. Next, the samples were shaken on a Thermomixer (Eppendorf) at 900 rpm for 5 min and then incubated for 25 min at room temperature while protected from light. To minimize signal cross-talk between adjacent wells, we transferred the contents of the clear 96-well culture plates to white/opaque 384-well Lumitrac plates (Greiner) with two technical replicates (20 μl each) per sample, after the incubation. We recorded the luminescence immediately after the transfer using a Synergy Mx plate reader (BioTek). We outputted the results to Microsoft Excel for reformatting and then transferred them to GraphPad Prism v9.0.1 (Graphpad Software, Inc.) for plotting and statistical analysis.
To compare the toxic effects of compounds on AMOs and 2D-cultured midbrain dopaminergic neurons, we seeded and cultured both in parallel and generated them from the same smNPC starting cell population. For 2D dopaminergic neuron differentiation, smNPCs were seeded in 1% (v/v in KO-DMEM/F-12) Matrigel-coated 6-well plates and standard smNPC medium, following digestion by accutase as described above. From day 2 onwards, they were treated identically with the AMOs (i.e., they received the same media at the same timepoints). To work with the 2D dopaminergic neurons in a screening setting (and have the same plate format as the AMOs), we reseeded them to flat-bottom 96-well plates (“μCLEAR”, black, Greiner) at a density of 70,000 cells/well on day 48. On day 49, the medium of both 2D mDA neurons and 3D AMOs was exchanged to tox medium. The next day, we treated them with different concentrations (0.01, 0.1, 1, 10, 50, 100, 200, 500, and 1,000 μM; controls received the corresponding solvent at an amount equivalent to the highest compound concentration; n = 6 per concentration) of the compounds lindane (Sigma-Aldrich, in ethanol) and 6-hydroxydopamine hydrochloride (Sigma Aldrich, in DMSO) in tox medium. After 48 h of incubation, we measured the samples’ viability. For the AMOs, we used the CellTiter-Glo 3D cell viability assay as described above. We measured the 2D mDA neuron viability with the CellTiter-Glo 2.0 cell viability assay (Promega) according to the manufacturer’s instructions. In short, we brought the sample plates and reagents to room temperature for 30 min. We adjusted the media volume of the samples to 50 μl and added an equal volume (50 μl) of the CellTiter-Glo 2.0 reagent. We let the plate shake for 2 min at 900 rpm on a Thermomixer and then incubated them for 10 min at room temperature and protected from light. Immediately afterward, we measured the luminescence on a Synergy Mx plate reader. […]

[2] = tested on: 2D-cultured midbrain dopaminergic (mDA) neurons; assay: Viability of 2D-cultured mDA neurons (CellTiter-Glo 2.0) in the 2D vs 3D comparison; type: cell-based; details: Homo sapiens, Neuron, 2D mDA neurons, 48 h exposure from day 50
Protocol: To compare the toxic effects of compounds on AMOs and 2D-cultured midbrain dopaminergic neurons, we seeded and cultured both in parallel and generated them from the same smNPC starting cell population. For 2D dopaminergic neuron differentiation, smNPCs were seeded in 1% (v/v in KO-DMEM/F-12) Matrigel-coated 6-well plates and standard smNPC medium, following digestion by accutase as described above. From day 2 onwards, they were treated identically with the AMOs (i.e., they received the same media at the same timepoints). To work with the 2D dopaminergic neurons in a screening setting (and have the same plate format as the AMOs), we reseeded them to flat-bottom 96-well plates (“μCLEAR”, black, Greiner) at a density of 70,000 cells/well on day 48. On day 49, the medium of both 2D mDA neurons and 3D AMOs was exchanged to tox medium. The next day, we treated them with different concentrations (0.01, 0.1, 1, 10, 50, 100, 200, 500, and 1,000 μM; controls received the corresponding solvent at an amount equivalent to the highest compound concentration; n = 6 per concentration) of the compounds lindane (Sigma-Aldrich, in ethanol) and 6-hydroxydopamine hydrochloride (Sigma Aldrich, in DMSO) in tox medium. After 48 h of incubation, we measured the samples’ viability. For the AMOs, we used the CellTiter-Glo 3D cell viability assay as described above. We measured the 2D mDA neuron viability with the CellTiter-Glo 2.0 cell viability assay (Promega) according to the manufacturer’s instructions. In short, we brought the sample plates and reagents to room temperature for 30 min. We adjusted the media volume of the samples to 50 μl and added an equal volume (50 μl) of the CellTiter-Glo 2.0 reagent. We let the plate shake for 2 min at 900 rpm on a Thermomixer and then incubated them for 10 min at room temperature and protected from light. Immediately afterward, we measured the luminescence on a Synergy Mx plate reader. We outputted the results to Microsoft Excel and GraphPad Prism v9.0.1 for reformatting, plotting, and analysis. Data processing was performed as outlined for the CellTiter-Glo 3D-based viability assay above, except for the averaging of technical replicates, as measurements were performed directly in the culture plate without additional technical replicates.
All other data analysis steps including the statistical analysis to identify significant differences in toxicity between 2D and 3D (via multiple unpaired t-tests with the same parameters as above, corrected for using the Bonferroni-Dunn method, and considering padj <0.05 as significant), as well as dose-response curve fitting, were performed as described in detail above. The IC50 values were taken from the same regression/analysis as the dose-response curves.

[3] = tested on: TH+ dopaminergic and Map2+ general neurons in AMOs; assay: Dose-response analysis, TH and Map2 content by high content imaging; type: cell-based, human; details: 48 h + 6 days; for Map2 content (general neurons) / TH content (dopaminergic neurons): 0.01-1,000 μM (rotenone up to 100 μM), both AMO lines; for TH levels compared to Map2 levels: dose-response, padj < 0.05
Protocol: All processing steps were conducted in an HTS-compatible automated liquid handling system (ALHS, a Biomek FXP liquid handling station). To quantify different cellular subpopulations within the AMOs, we employed our previously described (Renner et al., [2020], [2021b]) ALHS-compatible workflow for combined whole-mount staining and clearing, with minor modifications. We fixed the AMOs with 4% PFA (VWR) for 10–15 min and stained the entire aggregates with primary and secondary antibodies for 6 days each. The antibodies used in this study were as follows. Primary: mouse anti-Map2 (1:1,000, Merck Millipore, cat#: MAB3418) and rabbit anti-TH (1:500, Abcam, cat#: ab112). Secondary: donkey anti-mouse IgG, Alexa Fluor 488 conjugated (1:1,000, Thermo Fisher, cat#: A-21202) and donkey anti-rabbit IgG, Alexa Fluor 647 conjugated (1:1,000, Thermo Fisher, cat#: A-31573). The antibodies were diluted in blocking and permeabilization solution consisting of 6% BSA, 0.5% Triton-X 100 (Roth), 0.1% (w/v) sodium azide (Sigma-Aldrich) in PBS (Sigma-Aldrich) and immediately added after fixation following a triple rinse with PBS. We renewed the antibody solutions once after three days. As a nuclear counter stain, we added DAPI (1 μg/ml, Sigma-Aldrich) to the solution containing the secondary antibodies. Between primary and secondary antibody application and after finishing the secondary antibody incubation, we washed the samples overnight with 0.1% Triton X-100 in PBS, with a total of five exchanges of the washing solution. After the whole-mount staining, we performed BABB-based tissue clearing (Dent et al., [1989]) to allow image acquisition with single-cell resolution of the entire aggregates. For this purpose, we first dehydrated the AMOs via a stepwise methanol (Roth) series (25%, 50%, 70%, 90%, and 100%, each for 15 min). For clearing and imaging, we transferred them to organic solvent-resistant cyclo-olefin 96-well flat-bottom plates (“Screenstar”, Greiner Bio-One). Finally, we incubated the samples for 30 min in 1:1 (v/v) methanol/BABB (BABB consisted of benzyl alcohol (Sigma-Aldrich) and benzyl benzoate (Sigma-Aldrich) at a 1:1 (v/v) ratio) and then kept them in 100% BABB in the dark for storage and subsequent automated high content confocal fluorescent analysis.
We prepared and treated the AMOs with the compounds as described for the primary viability screen. On day 50, after 48 h of compound incubation, we replaced the medium with standard AMO medium and maintained the AMOs for 6 additional days under standard culture conditions. This additional time allows the cells killed by the compounds to be cleared from the aggregates. After the 6 days, we fixed the organoids with 4% PFA, whole-mount-stained them for TH and Map2, and tissue-cleared them as described above. To achieve uniform aggregate positioning within the wells before imaging, we tilted the plates off the horizontal plane at 60 degrees for a minimum of 5 min. We performed automated image acquisition of entire 96-well plates on an Operetta high content imager (Perkin Elmer) and analyzed images in the Harmony 4.1 software and/or Columbus version 2.6.0 as previously described (Renner et al., [2020]), with adjustments to account for the individual properties of the staining and samples. We acquired three medial planes for each organoid, spaced 36.6 μm apart to avoid double-sampling individual morphological features. For the analysis, we defined the organoid region in each image by summing all channels, removed small localized features with a median filter (10 px), and identified putative organoids/regions of interest (ROIs) with the “find image region” function. To identify bona fide AMOs and exclude image artifacts and dust, we selected the ROIs with an area >9,000 μm^2, roundness >0.4, and mean DAPI intensity >190 arbitrary brightness units (abu).

[4] = tested on: automated midbrain organoids (AMOs); assay: Dose-response analysis, ATP-based overall AMO viability; type: cell-based, human; details: 48 h + 6 days; for viability: 0.01-1,000 μM (rotenone up to 100 μM), both AMO lines
Protocol: AMOs were cultured as described above for 47 days. On day 47, we exchanged their medium to tox medium (TM), initially without the addition of any compounds. […] For each compound, we included n = 8 controls per compound treated with the corresponding solvent at an amount equivalent to the highest compound concentration. To assess viability and cell type-specific toxicity in parallel and under the same conditions, we treated all samples with the compounds for 48 h, then exchanged their medium to standard culture medium without compounds and maintained them for an additional 6 days before analysis to allow breakdown and removal of cellular debris. Organoid viability and cell type-specific toxicity were analyzed as described for the primary screens. Here, we acquired five confocal planes spaced 36.6 μm apart in our Operetta high content imager. The image analysis of the AMOs for cell type-specific toxicity assessment required minor adjustments to account for the individual properties of the staining. […] For Map2, we performed Gaussian smoothing with a width of 10 px and omitted the additional sliding parabola filter. The other steps were performed as outlined for the primary cell-type-specific toxicity screen. […] In detail: The dose-response series, including the individual solvent controls, was performed for every compound on a separate 96-well plate of AMOs with initially n = 8 organoids per concentration. […] Data processing, including normalizations, was performed for each individual compound/plate as outlined above for the primary screens. Significant differences between the Map2 and TH content were also determined in GraphPad Prism as described for the primary screen and with the same parameters (multiple comparisons were performed for the different concentrations instead of compounds).

[5] = tested on: TH+ dopaminergic and Map2+ general neurons in AMOs; assay: Primary cell-type-specific toxicity screen (whole-mount TH/Map2 staining, high content imaging); type: cell-based, human; details: approx. 100 μM, 48 h + 6 days, shared between both AMO lines, padj < 0.05
Protocol: All processing steps were conducted in an HTS-compatible automated liquid handling system (ALHS, a Biomek FXP liquid handling station). To quantify different cellular subpopulations within the AMOs, we employed our previously described (Renner et al., [2020], [2021b]) ALHS-compatible workflow for combined whole-mount staining and clearing, with minor modifications. We fixed the AMOs with 4% PFA (VWR) for 10–15 min and stained the entire aggregates with primary and secondary antibodies for 6 days each. The antibodies used in this study were as follows. Primary: mouse anti-Map2 (1:1,000, Merck Millipore, cat#: MAB3418) and rabbit anti-TH (1:500, Abcam, cat#: ab112). Secondary: donkey anti-mouse IgG, Alexa Fluor 488 conjugated (1:1,000, Thermo Fisher, cat#: A-21202) and donkey anti-rabbit IgG, Alexa Fluor 647 conjugated (1:1,000, Thermo Fisher, cat#: A-31573). The antibodies were diluted in blocking and permeabilization solution consisting of 6% BSA, 0.5% Triton-X 100 (Roth), 0.1% (w/v) sodium azide (Sigma-Aldrich) in PBS (Sigma-Aldrich) and immediately added after fixation following a triple rinse with PBS. We renewed the antibody solutions once after three days. As a nuclear counter stain, we added DAPI (1 μg/ml, Sigma-Aldrich) to the solution containing the secondary antibodies. Between primary and secondary antibody application and after finishing the secondary antibody incubation, we washed the samples overnight with 0.1% Triton X-100 in PBS, with a total of five exchanges of the washing solution. […]
We prepared and treated the AMOs with the compounds as described for the primary viability screen. […] We performed automated image acquisition of entire 96-well plates on an Operetta high content imager (Perkin Elmer) and analyzed images in the Harmony 4.1 software and/or Columbus version 2.6.0 as previously described (Renner et al., [2020]), with adjustments to account for the individual properties of the staining and samples. […]

[6] = tested on: automated midbrain organoids (AMOs); assay: Primary organoid viability screen (ATP-based CellTiter-Glo 3D); type: cell-based, human; details: approx. 100 μM, 48 or 96 h, two AMO lines
Protocol: We cultured AMOs for 47 days in our automated system as described above. On day 47, we exchanged the organoid medium to a minimal tox medium (TM, consisting of DMEM/F-12 with 1% N2 supplement and 1% penicillin/streptomycin/glutamine) to reduce possible interference from antioxidants in the B27 media supplement. The next day, we treated the AMOs with the compounds from the library at a concentration of 100 μM in TM with some deviations due to solubility (see Supplementary Table 1 for a complete list of compounds including their final concentrations in the screen). DMSO control samples contained 0.5% (v/v) DMSO, which is equivalent to the amount of solvent in the samples that received compound treatment. After 48 h of incubation with the compounds, we either directly processed the organoids for the 48-h time point or renewed the compounds in TM once to achieve 96 h of incubation. […] We recorded the luminescence immediately after the transfer using a Synergy Mx plate reader (BioTek). […]
In detail: All compounds including their controls were arrayed on a single 96-well plate (see Supplementary Table 1 for well positions), and replicated across three plates for a total of n = 3 replicates per condition (except AMO line 2 at 48 h n = 2). […] During our analysis, we first averaged the two technical replicates from the luminescence measurement in Microsoft Excel, yielding one averaged luminescence value for each well of the original 96-well AMO plates. Then, we normalized the luminescence detected in each well to the mean luminescence of the four DMSO controls of the same plate to get a relative organoid viability value. Normalization was performed separately for each plate to account for and correct for potential differences during the luminescence measurements. […] We further assessed the homogeneity of the AMOs by calculating the coefficient of variation (CV) for the relative viabilities of the DMSO controls (i.e., we divided the standard deviations by the corresponding means and averaged the resulting CV values for the DMSO controls). […]

## Cl.NCCc1cc(O)c(O)cc1O [6OHDA, 6-hydroxydopamine hydrochloride, reference compound]
[1]; AMO line 1, 3D
  IC50: 315 µM
[1]; AMO line 2, 3D
  IC50: 269 µM
[1]; both cell lines, 48 h, 0.01-1,000 μM, padj < 0.05
  toxicity in 3D AMOs compared with 2D-cultured dopaminergic neurons: significantly stronger toxic effect in 2D than 3D
[2]; AMO line 1 cell line
  IC50: 44.2 µM
[2]; AMO line 2 cell line
  IC50: 65 µM

## CC(=O)Oc1ccccc1C(=O)O [ASS, acetylsalicylic acid, reference compound]
[3]
  Map2 content (general neurons): no impact
  TH content (dopaminergic neurons): no impact
[4]; 0.01-1,000 μM, viability, Map2 and TH readouts
  overall toxicity in the dose-response experiments: no significant changes at any of the tested concentrations; also recorded: non-toxic across all tested concentrations

## COc1ccc2cc3[n+](cc2c1OC)CCc1cc2c(cc1-3)OCO2 [BC, berberine chloride]
[3]
  Map2 content (general neurons): strongly reduced
  TH content (dopaminergic neurons): strongly reduced
  TH levels compared to Map2 levels: significantly reduced TH levels compared to Map2 over a broad range of concentrations
[5]
  significant difference in reduction between TH and Map2 (dopaminergic neuron-specific toxicity): statistically significant difference in reduction between TH and Map2
[4]
  viability: strongly reduced

## Oc1c(Cl)cc(Cl)c(Cl)c1Cc1c(O)c(Cl)cc(Cl)c1Cl [HCP, hexachlorophene]
[3]
  Map2 content (general neurons): strongly reduced
  TH content (dopaminergic neurons): strongly reduced
[4]
  viability: strongly reduced
[6]
  toxicity in the primary screens: highly toxic

## CC(C)(c1cc(Br)c(O)c(Br)c1)c1cc(Br)c(O)c(Br)c1 [TBBPA, 3,3′,5,5′-tetrabromobisphenol A]
[3]
  Map2 content (general neurons): strongly reduced
  TH content (dopaminergic neurons): strongly reduced
  TH levels compared to Map2 levels: significantly reduced TH levels compared to Map2 over a broad range of concentrations
[5]
  significant difference in reduction between TH and Map2 (dopaminergic neuron-specific toxicity): statistically significant difference in reduction between TH and Map2
[4]
  viability: strongly reduced

## [CH3][Hg][Cl] [methyl mercuric (II) chloride]
[5]
  significant difference in reduction between TH and Map2 (dopaminergic neuron-specific toxicity): statistically significant difference in reduction between TH and Map2

## C=C(C)[C@H]1Cc2c(ccc3c2O[C@@H]2COc4cc(OC)c(OC)cc4[C@@H]2C3=O)O1 [rotenone, reference compound]
[3]
  TH levels compared to Map2 levels: significantly reduced TH levels compared to Map2 over a broad range of concentrations
